Laboratory results from patent US9944602B2, “Piperidinone herbicides” (E. I. DU PONT DE NEMOURS AND COMPANY, priority 2014, dated 2018).

Assays:
Assay type in all cases: in vivo
[1] = system: barnyardgrass (Echinochloa crus-galli); assay: Test B flooded paddy test barnyardgrass; conditions: Table B, Flood, 500 g ai/ha, scale 0 to 100
Protocol: (§1) Plant species in the flooded paddy test selected from rice (Oryza sativa), sedge, umbrella (small-flower umbrella sedge, Cyperus difformis), ducksalad (Heteranthera limosa), and barnyardgrass (Echinochloa crus-galli) were grown to the 2-leaf stage for testing. At the time of treatment, test pots were flooded to 3 cm above the soil surface, treated by application of test compounds directly to the paddy water, and then maintained at that water depth for the duration of the test. Treated plants and controls were maintained in a greenhouse for 13 to 15 d, after which time all species were compared to controls and visually evaluated. […] A dash (-) response means no test result.

[2] = system: rice (Oryza sativa); assay: Test B flooded paddy test rice; conditions: Table B, Flood, 500 g ai/ha, scale 0 to 100
Protocol: as §1

[3] = system: pigweed (Amaranthus retroflexus); assay: Test A postemergence pigweed; conditions: 0 to 100 scale, 0 is no effect, 100 is complete control
Description: (§2) Seeds of plant species selected from barnyardgrass (Echinochloa crus-galli), kochia (Kochia scoparia), ragweed (common ragweed, Ambrosia elatior), ryegrass, Italian (Italian ryegrass, Lolium multiflorum), crabgrass, large (large crabgrass, Digitaria sanguinalis), foxtail, giant (giant foxtail, Setaria faberii), morningglory (Ipomoea spp.), pigweed (Amaranthus retroflexus), velvetleaf (Abutilon theophrasti), wheat (Triticum aestivum), and corn (Zea mays) were planted into a blend of loam soil and sand and treated preemergence with a directed soil spray using test chemicals formulated in a non-phytotoxic solvent mixture which included a surfactant.
(§3) At the same time, plants selected from these crop and weed species and also blackgrass (Alopecurus myosuroides), and galium (catchweed bedstraw, Galium aparine) were planted in pots containing the same blend of loam soil and sand and treated with postemergence applications of test chemicals formulated in the same manner. Plants ranged in height from 2 to 10 cm and were in the one- to two-leaf stage for the postemergence treatment. Treated plants and untreated controls were maintained in a greenhouse for approximately 10 d, after which time all treated plants were compared to untreated controls and visually evaluated for injury. Plant response ratings, summarized in Table A, are based on a 0 to 100 scale where 0 is no effect and 100 is complete control. A dash (-) response means no test result.

[4] = system: barnyardgrass (Echinochloa crus-galli); assay: Test A postemergence barnyardgrass; conditions: 0 to 100 scale, 0 is no effect, 100 is complete control
Description: as §2, §3

[5] = system: ragweed (common ragweed, Ambrosia elatior); assay: Test A postemergence ragweed; conditions: 0 to 100 scale, 0 is no effect, 100 is complete control
Description: as §2, §3

[6] = system: foxtail, giant (giant foxtail, Setaria faberii); assay: Test A preemergence foxtail, giant; conditions: 0 to 100 scale, 0 no effect, 100 complete control
Description: as §2, §3

[7] = system: ryegrass, Italian (Italian ryegrass, Lolium multiflorum); assay: Test A postemergence ryegrass, Italian; conditions: 0 to 100 scale, 0 is no effect, 100 is complete control
Description: as §2, §3

[8] = system: pigweed (Amaranthus retroflexus); assay: Test A preemergence pigweed; conditions: 0 to 100 scale, 0 no effect, 100 complete control
Description: as §2, §3

[9] = system: kochia (Kochia scoparia); assay: Test A postemergence kochia; conditions: 0 to 100 scale, 0 is no effect, 100 is complete control
Description: as §2, §3

[10] = system: sedge, umbrella (small-flower umbrella sedge, Cyperus difformis); assay: Test B flooded paddy test sedge, umbrella; conditions: Table B, Flood, 500 g ai/ha, scale 0 to 100
Protocol: as §1

[11] = system: foxtail, giant (giant foxtail, Setaria faberii); assay: Test A postemergence foxtail, giant; conditions: 0 to 100 scale, 0 is no effect, 100 is complete control
Description: as §2, §3

[12] = system: barnyardgrass (Echinochloa crus-galli); assay: Test A preemergence barnyardgrass; conditions: 0 to 100 scale, 0 no effect, 100 complete control
Description: as §2, §3

[13] = system: kochia (Kochia scoparia); assay: Test A preemergence kochia; conditions: 0 to 100 scale, 0 no effect, 100 complete control
Description: as §2, §3

[14] = system: blackgrass (Alopecurus myosuroides); assay: Test A postemergence blackgrass; conditions: 0 to 100 scale, 0 is no effect, 100 is complete control
Description: as §2, §3

[15] = system: ducksalad (Heteranthera limosa); assay: Test B flooded paddy test ducksalad; conditions: Table B, Flood, 500 g ai/ha, scale 0 to 100
Protocol: as §1

[16] = system: wheat (Triticum aestivum); assay: Test A postemergence wheat; conditions: 0 to 100 scale, 0 is no effect, 100 is complete control
Description: as §2, §3

[17] = system: ragweed (common ragweed, Ambrosia elatior); assay: Test A preemergence ragweed; conditions: 0 to 100 scale, 0 no effect, 100 complete control
Description: as §2, §3

[18] = system: corn (Zea mays); assay: Test A postemergence corn; conditions: 0 to 100 scale, 0 is no effect, 100 is complete control
Description: as §2, §3

[19] = system: galium (catchweed bedstraw, Galium aparine); assay: Test A postemergence galium; conditions: 0 to 100 scale, 0 is no effect, 100 is complete control
Description: as §2, §3

[20] = system: ryegrass, Italian (Italian ryegrass, Lolium multiflorum); assay: Test A preemergence ryegrass, Italian; conditions: 0 to 100 scale, 0 no effect, 100 complete control
Description: as §2, §3

Structure (SMILES) | Plant response rating [1] | Plant response rating [2] | Plant response rating, Pigweed ([3]; 125 g ai/ha) | Plant response rating, Pigweed ([3]; 500 g ai/ha) | Plant response rating, Barnyardgrass ([4]; 125 g ai/ha) | Plant response rating, Barnyardgrass ([4]; 500 g ai/ha) | Plant response rating, Ragweed ([5]; 125 g ai/ha) | Plant response rating, Ragweed ([5]; 500 g ai/ha) | Foxtail, Giant plant response rating ([6]; 125 g ai/ha) | Foxtail, Giant plant response rating ([6]; 500 g ai/ha) | Plant response rating, Ryegrass, Italian ([7]; 125 g ai/ha) | Plant response rating, Ryegrass, Italian ([7]; 500 g ai/ha) | Pigweed plant response rating ([8]; 125 g ai/ha) | Pigweed plant response rating ([8]; 500 g ai/ha) | Plant response rating, Kochia ([9]; 125 g ai/ha) | Plant response rating, Kochia ([9]; 500 g ai/ha) | Plant response rating [10] | Plant response rating, Foxtail, Giant ([11]; 125 g ai/ha) | Plant response rating, Foxtail, Giant ([11]; 500 g ai/ha) | Barnyardgrass plant response rating ([12]; 125 g ai/ha) | other results
O=C1NCCC(c2cccc(C(F)(F)F)c2)C1C(=O)Nc1cccc(Cl)c1Cl (racemic) [Compound 31] | 95 | 10 | 0 | 0 | 60 | 80 | 0 | 0 | 70 | 90 | 0 | 0 | 0 | 0 | 0 | 0 | 0 | 70 | 80 | 70 | Barnyardgrass plant response rating ([12]; 500 g ai/ha): 80; Kochia plant response rating ([13]; 125 g ai/ha): 0; Kochia plant response rating ([13]; 500 g ai/ha): 0; Plant response rating, Blackgrass ([14]; 125 g ai/ha): 20; Plant response rating, Blackgrass ([14]; 500 g ai/ha): 40; Plant response rating [15]: 0; Plant response rating, Wheat ([16]; 125 g ai/ha): 0; Plant response rating, Wheat ([16]; 500 g ai/ha): 0; Ragweed plant response rating ([17]; 125 g ai/ha): 0; Ragweed plant response rating ([17]; 500 g ai/ha): 0; Plant response rating, Corn ([18]; 125 g ai/ha): 0; Plant response rating, Corn ([18]; 500 g ai/ha): 0; Plant response rating, Galium ([19]; 125 g ai/ha): 0; Plant response rating, Galium ([19]; 500 g ai/ha): 0; Ryegrass, Italian plant response rating ([20]; 125 g ai/ha): 0; Ryegrass, Italian plant response rating ([20]; 500 g ai/ha): 0
CS(=O)(=O)c1ccccc1NC(=O)C1C(=O)NCCC1c1cccc(C(F)(F)F)c1 (racemic) [Compound 32] | 0 | 0 | 0 | 0 | 60 | 70 | 0 | 0 | 70 | 90 | 0 | 20 | 0 | 0 | 0 | 20 | 0 | 40 | 40 | 20 | Barnyardgrass plant response rating ([12]; 500 g ai/ha): 90; Kochia plant response rating ([13]; 125 g ai/ha): 0; Kochia plant response rating ([13]; 500 g ai/ha): 20; Plant response rating, Blackgrass ([14]; 125 g ai/ha): 0; Plant response rating, Blackgrass ([14]; 500 g ai/ha): 0; Plant response rating [15]: 40; Plant response rating, Wheat ([16]; 125 g ai/ha): 0; Plant response rating, Wheat ([16]; 500 g ai/ha): 0; Ragweed plant response rating ([17]; 125 g ai/ha): 0; Ragweed plant response rating ([17]; 500 g ai/ha): 0; Plant response rating, Corn ([18]; 125 g ai/ha): 0; Plant response rating, Corn ([18]; 500 g ai/ha): 30; Plant response rating, Galium ([19]; 125 g ai/ha): 0; Plant response rating, Galium ([19]; 500 g ai/ha): 0; Ryegrass, Italian plant response rating ([20]; 125 g ai/ha): 0; Ryegrass, Italian plant response rating ([20]; 500 g ai/ha): 30
